One test has as its target T1, Cdk2(C177A, F80C) (Homo sapiens, UniProt P24941, C177A/F80C).
T1 construct: poly-histidine; made in house; host or cells: E. coli
The experiment in a line: Kinetic thiol consumption assay with Cdk2 mutant F80C, incl. kobs versus concentration (Kd, k2). The following applies: additional mutation C177A; for Rate constant with Cdk2 F80C: Protein: Cdk2, cysteine position F80C, in h^-1. Details: key to Rate enhancement, Cdk2 F80C: Cdk2 rate constant divided by model-thiol rate constant. In kind it is binding. The gist of the method:
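His-tagged Cdk2(C177A/F80C) from E. coli or model thiol, 5 μM in degassed phosphate buffer pH 8 with TCEP beads, reacted with acrylamide ligands; fluorescence (ex/em 380/470 nm) normalized to DMSO control and fitted to first-order decay for kobs. Kd and k2 obtained from hyperbolic fit of kobs versus ligand concentration.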

A short description of test [1]: Kinetic thiol consumption assay with model thiol glutathione. In kind it is physicochemical. The arrangement: Rate constant with glutathione (k(GSH)): unit not given here. The note with it: for Rate constant with glutathione (k(GSH)): 500 μM ligand, 5 μM thiol, phosphate buffer pH 8; for Rate constant with Glutathione: Protein: Glutathione, cysteine position NA, in h-1. Put shortly: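 First, 5 μM glutathione in degassed phosphate buffer (pH 8) receives immobilized TCEP beads (2% v/v). Then acrylamide is added and plates incubate 1 h at room temperature. Finally, fluorescence (380/470 nm) is normalized and fitted to first-order decay for rate constants.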

The target of another test is T2, Cdk2(R122C) (C177A) (Homo sapiens, UniProt P24941, C177A/R122C).
T2 construct: poly-histidine; made in house; host or cells: E. coli
The experiment in a line: Kinetic thiol consumption assay with Cdk2 mutant R122C. The note with it: additional mutation C177A; for Rate constant with Cdk2 R122C: Protein: Cdk2, cysteine position R122C, in h-1. Details: key to Rate enhancement, Cdk2 R122C: rate constant with Cdk2 ÷ rate constant with model thiol (fold). In kind it is binding. The gist of the method: (§1)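 Thiol consumption was monitored kinetically using 5 μM Cdk2 (C177A plus one introduced cysteine) in degassed phosphate buffer at pH 8 with TCEP beads. Plates were kept 1 h at room temperature before fluorescence reading, and rate constants came from exponential decay fitting.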

The next test deals with T3, Cdk2(T182C) (C177A) (Homo sapiens, UniProt P24941, C177A/T182C).
T3 construct: poly-histidine; made in house; host or cells: E. coli
Briefly: Kinetic thiol consumption assay with Cdk2 mutant T182C. The note with it: additional mutation C177A; for Rate constant with Cdk2 T182C: Protein: Cdk2, cysteine position T182C, in h^-1. In kind it is binding. The arrangement: key to Rate enhancement, Cdk2 T182C: rate constant with Cdk2 ÷ rate constant with model thiol (fold). Put shortly: as §1

The target in the next test is T4, Cdk2[C177A, F80C, K278C] (Homo sapiens, UniProt P24941, C177A/F80C/K278C).
T4 construct: poly-histidine; made in house; host or cells: E. coli
The experiment in a line: Kinetic thiol consumption assay with mutant Cdk2 as model thiol. In kind it is binding. Details: unit not given here. The note with it: 500 μM ligand, 5 μM thiol, phosphate buffer pH 8. The gist of the method:
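First-order rate constants were derived by exponential-decay fitting of DMSO/thiol-normalized fluorescence (380/470 nm) over time at room temperature. Thiol was 5 μM E. coli-expressed His-tagged Cdk2 mutant C177A/F80C/K278C in degassed pH 8 phosphate buffer containing 2% v/v TCEP beads.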

Another test concerns the target T5, Cdk2(H71C) (C177A) (Homo sapiens, UniProt P24941, C177A/H71C).
T5 construct: poly-histidine; made in house; host or cells: E. coli
Briefly: Kinetic thiol consumption assay with Cdk2 mutant H71C. In kind it is binding. Details: key to Rate enhancement, Cdk2 H71C: rate constant with Cdk2 ÷ rate constant with model thiol (fold). The note with it: additional mutation C177A; for Rate constant with Cdk2 H71C: Protein: Cdk2, cysteine position H71C, in h^-1. The gist of the method:
as §1

For the next test, the target named is T6, Cdk2(N272C) (C177A) (Homo sapiens, UniProt P24941, C177A/N272C).
T6 construct: poly-histidine; made in house; host or cells: E. coli
Briefly: Kinetic thiol consumption assay with Cdk2 mutant N272C. In kind it is binding. The arrangement: key to Rate enhancement, Cdk2 N272: rate constant with Cdk2 ÷ rate constant with model thiol (fold). The following applies: for Rate enhancement, Cdk2 N272: Cdk2 N272, additional mutation C177A; for Rate constant with Cdk2 N272C: Protein: Cdk2, cysteine position N272C, additional mutation C177A, in h^-1. The gist of the method:
as §1

Another test has as its target T7, Cdk2(S181C) (C177A) (Homo sapiens, UniProt P24941, C177A/S181C).
T7 construct: poly-histidine; made in house; host or cells: E. coli
Briefly: Kinetic thiol consumption assay with Cdk2 mutant S181C. In kind it is binding. Details: key to Rate enhancement, Cdk2 S181C: rate constant with Cdk2 ÷ rate constant with model thiol (fold). The note with it: additional mutation C177A; for Rate constant with Cdk2 S181C: Protein: Cdk2, cysteine position S181C, in h^-1. Put shortly:
as §1

The target in test [2] is T8, human cyclin-dependent kinase 2 (Cdk2) (Homo sapiens, UniProt P24941).
T8 construct: poly-histidine; made in house; host or cells: E. coli
The experiment in a line: Kinetic thiol consumption assay with wild type Cdk2 (C177). In kind it is binding. The arrangement: key to Rate enhancement, Cdk2 WT: k(Cdk2) divided by k(model thiol); Rate constant with Cdk2 (k(Cdk2)): unit not given here. The following applies: for Rate constant with Cdk2 (k(Cdk2)): 500 μM ligand, 5 μM thiol, phosphate buffer pH 8; for Rate enhancement, Cdk2 WT: no additional mutations; for Rate constant with Cdk2 WT: Protein: Cdk2, cysteine position WT, in h^-1; for k(Cdk2)/k(Cdk2_mut) rate enhancement: model thiol Cdk2[C177A, F80C, K278C]; for k(Cdk2)/k(GSH) rate enhancement: model thiol glutathione. The gist of the method: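 His-tagged human Cdk2 from E. coli (sole surface cysteine C177) or a model thiol, each 5 μM in degassed phosphate buffer pH 8 with immobilized TCEP, reacted with acrylamides at room temperature. Fluorescence (ex 380/em 470) normalized to DMSO/thiol control over time; first-order rate constants, Cdk2 rate divided by model-thiol rate.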

A further test addresses T9, Cdk2(S276C) (C177A) (Homo sapiens, UniProt P24941, C177A/S276C).
T9 construct: poly-histidine; made in house; host or cells: E. coli
The experiment in a line: Kinetic thiol consumption assay with Cdk2 mutant S276C. In kind it is binding. Details: key to Rate enhancement, Cdk2 S276C: rate constant with Cdk2 ÷ rate constant with model thiol (fold). The note with it: additional mutation C177A; for Rate constant with Cdk2 S276C: Protein: Cdk2, cysteine position S276C, in h^-1. Put shortly: as §1

SMILES strings stand for the structures.

As for `C=CC(=O)N1CCC2CCC(C1)N2C` (stereo not shown) [CA-143], at Cdk2(C177A, F80C), the “Rate enhancement, Cdk2 F80C” value worked out at 0.1014 and the “Rate constant with Cdk2 F80C” value came out at 0.002972. Also, in test [1], the “Rate constant with glutathione (k(GSH))” value is given as 0.0293 and the “Rate constant with Glutathione” value amounted to 0.02932. At Cdk2(R122C) (C177A), the “Rate enhancement, Cdk2 R122C” value is given as 0.2049 and the “Rate constant with Cdk2 R122C” value is on record as 0.006009. At Cdk2(T182C) (C177A), the “Rate enhancement, Cdk2 T182C” value is listed as 2.359 and the “Rate constant with Cdk2 T182C” value is on record as 0.06917. Further, at Cdk2[C177A, F80C, K278C], the “Rate constant with Cdk2[C177A, F80C, K278C] (k(Cdk2_mut))” value (from here on “Rate constant … (k(Cdk2_mut))”) is on record as 0.00505. In addition, on Cdk2(H71C) (C177A), the “Rate enhancement, Cdk2 H71C” value worked out at 0.08025 and the “Rate constant with Cdk2 H71C” value is on record as 0.002353. For the same compound, at Cdk2(N272C) (C177A), the “Rate enhancement, Cdk2 N272” value is 0.4942 and the “Rate constant with Cdk2 N272C” value was 0.01449. Moreover, on Cdk2(S181C) (C177A), the “Rate enhancement, Cdk2 S181C” value turned out to be 0.9178 and the “Rate constant with Cdk2 S181C” value is 0.02691. For the same compound, in [2], the “Rate constant with Cdk2 (k(Cdk2))” value was found to be 0.01115; the “Rate enhancement, Cdk2 WT” value amounted to 0.3803; the “Rate constant with Cdk2 WT” value was determined as 0.01115; the “k(Cdk2)/k(Cdk2_mut) rate enhancement” value is recorded as 2.207. The “k(Cdk2)/k(GSH) rate enhancement” value in [2] is 0.3805. On Cdk2(S276C) (C177A), the “Rate enhancement, Cdk2 S276C” value amounted to 0.6344 and the “Rate constant with Cdk2 S276C” value is given as 0.0186.

As to `C=CC(=O)Nc1nc2ccccc2n1CCc1ccccn1` [CA-144], on Cdk2(C177A, F80C), the “Rate enhancement, Cdk2 F80C” value was determined as 0.4956 and the “Rate constant with Cdk2 F80C” value came out at 0.02063. In addition, in test [1], the “Rate constant with glutathione (k(GSH))” value stood at 0.0414 and the “Rate constant with Glutathione” value worked out at 0.04163. Besides, at Cdk2(R122C) (C177A), the “Rate enhancement, Cdk2 R122C” value is recorded as 0.9491 and the “Rate constant with Cdk2 R122C” value was determined as 0.03951. Further, on Cdk2(T182C) (C177A), the “Rate enhancement, Cdk2 T182C” value is recorded as 2.327 and the “Rate constant with Cdk2 T182C” value turned out to be 0.09687. For the same compound, the “Rate constant … (k(Cdk2_mut))” value on Cdk2[C177A, F80C, K278C] is reported as 0.01242. Further, on Cdk2(H71C) (C177A), the “Rate enhancement, Cdk2 H71C” value amounted to 8.256 and the “Rate constant with Cdk2 H71C” value stood at 0.3437. At Cdk2(N272C) (C177A), the “Rate enhancement, Cdk2 N272” value worked out at 2.14 and the “Rate constant with Cdk2 N272C” value came out at 0.08909. Further, at Cdk2(S181C) (C177A), the “Rate enhancement, Cdk2 S181C” value stood at 0.4516 and the “Rate constant with Cdk2 S181C” value is reported as 0.0188. Besides, in test [2], the “Rate constant with Cdk2 (k(Cdk2))” value came out at 0.04682; the “Rate enhancement, Cdk2 WT” value is given as 1.125; the “Rate constant with Cdk2 WT” value stood at 0.04682; the “k(Cdk2)/k(Cdk2_mut) rate enhancement” value was 3.77. For the same compound, the “k(Cdk2)/k(GSH) rate enhancement” value in test [2] is 1.131. Moreover, at Cdk2(S276C) (C177A), the “Rate enhancement, Cdk2 S276C” value came out at 1.262 and the “Rate constant with Cdk2 S276C” value was 0.05252.

Regarding `C=CC(=O)N(C(=O)C=C)c1c2ccccc2n2c(C)nc3ccccc3c12` [CA-152], at Cdk2(C177A, F80C), the “Rate enhancement, Cdk2 F80C” value amounted to 0.1587 and the “Rate constant with Cdk2 F80C” value was determined as 1.27. Moreover, in test [1], the “Rate constant with glutathione (k(GSH))” value is on record as 0.2501 and the “Rate constant with Glutathione” value was determined as 8.003. Further, on Cdk2(R122C) (C177A), the “Rate enhancement, Cdk2 R122C” value is listed as 0. In addition, at Cdk2(T182C) (C177A), the “Rate enhancement, Cdk2 T182C” value was found to be 0. For the same compound, the “Rate constant … (k(Cdk2_mut))” value on Cdk2[C177A, F80C, K278C] is 3.059. The “Rate enhancement, Cdk2 H71C” value at Cdk2(H71C) (C177A) is given as 0. Besides, the “Rate enhancement, Cdk2 N272” value on Cdk2(N272C) (C177A) is on record as 0. Moreover, on Cdk2(S181C) (C177A), the “Rate enhancement, Cdk2 S181C” value turned out to be 0.9118 and the “Rate constant with Cdk2 S181C” value was 7.297. Besides, in test [2], the “Rate constant with Cdk2 (k(Cdk2))” value is given as 0.8358; the “Rate enhancement, Cdk2 WT” value stood at 0.4371; the “Rate constant with Cdk2 WT” value stood at 3.498; the “k(Cdk2)/k(Cdk2_mut) rate enhancement” value was 0.2732. Moreover, in [2], the “k(Cdk2)/k(GSH) rate enhancement” value is given as 3.342. Also, at Cdk2(S276C) (C177A), the “Rate enhancement, Cdk2 S276C” value was found to be 0.
